Oligonucleotides are written 5' to 3', each unit as a sugar letter and its base; * is a phosphorothioate linkage, no mark a phosphodiester; rarer units and linkages stand in square brackets, end groups in braces. Plain capitals give the bases only. e = 2'-O-(2-methoxyethyl) (MOE); [5mC] = 5-methylcytosine; d = 2'-deoxy (DNA)
Legend:
[1] = test system: human glucose-6-phosphatase translocase mRNA; test: Antisense inhibition of human glucose-6-phosphatase translocase mRNA in HepG2 cells (Table 11); format: cell-based; parameters: concentration or dose not given beside the values; conditions: LIPOFECTIN, mRNA by real-time PCR
Description: The human hepatoblastoma cell line HepG2 was obtained from the American Type Culture Collection (Manassas, Va.). HepG2 cells were routinely cultured in Eagle's MEM supplemented with 10% fetal bovine serum, 1 mM non-essential amino acids, and 1 mM sodium pyruvate (Invitrogen Life Technologies, Carlsbad, Calif.). Cells were routinely passaged by trypsinization and dilution when they reached approximately 90% confluence. Multiwell culture plates are prepared for cell culture by coating with a 1:100 dilution of type 1 rat tail collagen (BD Biosciences, Bedford, Mass.) in phosphate-buffered saline. The collagen-containing plates were incubated at 37° C. for approximately 1 hour, after which the collagen was removed and the wells were washed twice with phosphate-buffered saline. Cells were seeded into 96-well plates (Falcon-Primaria #353872, BD Biosciences, Bedford, Mass.) at a density of approximately 8,000 cells/well for use in oligomeric compound transfection experiments.
(§1) When cells reached 65-75% confluency, they were treated with oligonucleotide. Oligonucleotide was mixed with LIPOFECTIN™ Invitrogen Life Technologies, Carlsbad, Calif.) in Opti-MEM™-1 reduced serum medium (Invitrogen Life Technologies, Carlsbad, Calif.) to achieve the desired concentration of oligonucleotide and a LIPOFECTIN™ concentration of 2.5 or 3 μg/mL per 100 nM oligonucleotide. This transfection mixture was incubated at room temperature for approximately 0.5 hours. For cells grown in 96-well plates, wells were washed once with 100 μL OPTI-MEM™-1 and then treated with 130 μL of the transfection mixture. Cells grown in 24-well plates or other standard tissue culture plates are treated similarly, using appropriate volumes of medium and oligonucleotide. Cells are treated and data are obtained in duplicate or triplicate. After approximately 4-7 hours of treatment at 37° C., the medium containing the transfection mixture was replaced with fresh culture medium. Cells were harvested 16-24 hours after oligonucleotide treatment.
(§2) Quantitation of glucose 6-phosphatase translocase mRNA levels was accomplished by real-time quantitative PCR using the ABI PRISM™ 7600, 7700, or 7900 Sequence Detection System (PE-Applied Biosystems, Foster City, Calif.) according to manufacturer's instructions.
(§3) Prior to quantitative PCR analysis, primer-probe sets specific to the target gene being measured were evaluated for their ability to be “multiplexed” with a GAPDH amplification reaction. After isolation the RNA is subjected to sequential reverse transcriptase (RT) reaction and real-time PCR, both of which are performed in the same well. RT and PCR reagents were obtained from Invitrogen Life Technologies (Carlsbad, Calif.). […] The RT reaction was carried out by incubation for 30 minutes at 48° C. Following a 10 minute incubation at 95° C. to activate the PLATINUM® Taq, 40 cycles of a two-step PCR protocol were carried out: 95° C. for 15 seconds (denaturation) followed by 60° C. for 1.5 minutes (annealing/extension).
(§4) Gene target quantities obtained by RT, real-time PCR were normalized using either the expression level of GAPDH, a gene whose expression is constant, or by quantifying total RNA using RiboGreen™ (Molecular Probes, Inc. Eugene, Oreg.). GAPDH expression was quantified by RT, real-time PCR, by being run simultaneously with the target, multiplexing, or separately. Total RNA was quantified using RiboGreen™ RNA quantification reagent (Molecular Probes, Inc. Eugene, Oreg.).
A series of oligomeric compounds was designed to target different regions of human glucose-6-phosphatase translocase, using published sequences cited in Table 1. All compounds in Table 4 are chimeric oligonucleotides (“gapmers”) 20 nucleotides in length, composed of a central “gap” region consisting of 10 2′-deoxynucleotides, which is flanked on both sides (5′ and 3′) by five-nucleotide “wings”. The wings are composed of 2′-O-(2-methoxyethyl) nucleotides, also known as 2′-MOE nucleotides. […]

[2] = test system: mouse glucose-6-phosphatase translocase mRNA; test: Antisense inhibition of mouse glucose-6-phosphatase translocase mRNA in primary mouse hepatocytes, 150 nM, LIPOFECTIN (Table 22); format: cell-based; conditions: real-time PCR
Description: Primary mouse hepatocytes were prepared from CD-1 mice purchased from Charles River Labs. Primary mouse hepatocytes were routinely cultured in Hepatocyte Attachment Media supplemented with 10% fetal bovine serum (Invitrogen Life Technologies, Carlsbad, Calif.), 250 nM dexamethasone, and 10 nM bovine insulin (Sigma-Aldrich, St. Louis, Mo.). Cells were seeded into 96-well plates (Falcon-Primaria #353872, BD Biosciences, Bedford, Mass.) at a density of approximately 4,000-6,000 cells/well for use in oligomeric compound transfection experiments.
as §1, §2, §3, §4
A series of oligomeric compounds was designed to target different regions of mouse glucose-6-phosphatase translocase, using published sequences cited in Table 1. All compounds in Table 22 are chimeric oligonucleotides (“gapmers”) 20 nucleotides in length, composed of a central “gap” region consisting of 10 2′-deoxynucleotides, which is flanked on both sides (5′ and 3′) by five-nucleotide “wings”. The wings are composed of 2′-O-(2-methoxyethyl) nucleotides, also known as 2′-MOE nucleotides. The internucleoside (backbone) linkages are phosphorothioate throughout the oligonucleotide. All cytidine residues are 5-methylcytidines. The compounds were analyzed for their effect on gene target mRNA levels by quantitative real-time PCR as described in other examples herein, using the following primer-probe set designed to hybridize to mouse glucose-6-phosphatase translocase: • forward primer: […]

Sequence	% Inhib [1]	% Inhib of mouse glucose-6-phosphatase translocase mRNA levels [2]
ACCACACACAGTGCCCCAGA (eA*e[5mC]*e[5mC]*eA*e[5mC]*dA*d[5mC]*dA*d[5mC]*dA*dG*dT*dG*d[5mC]*d[5mC]*e[5mC]*e[5mC]*eA*eG*eA; antisense) [ISIS 145670]	42%	45%
ACCCAGAAGGCTGTGCTCCA (eA*e[5mC]*e[5mC]*e[5mC]*eA*dG*dA*dA*dG*dG*d[5mC]*dT*dG*dT*dG*e[5mC]*eT*e[5mC]*e[5mC]*eA; antisense) [ISIS 145702]	74%	45%
AGGAAGAACTGGCCCCAGTC (eA*eG*eG*eA*eA*dG*dA*dA*d[5mC]*dT*dG*dG*d[5mC]*d[5mC]*d[5mC]*e[5mC]*eA*eG*eT*e[5mC]; antisense) [ISIS 145685]	71%	43%
CAGGTTCATGCTGGTTGACA (e[5mC]*eA*eG*eG*eT*dT*d[5mC]*dA*dT*dG*d[5mC]*dT*dG*dG*dT*eT*eG*eA*e[5mC]*eA; antisense) [ISIS 145664]	66%	50%
CGCCAGCTGTAGCTCTGGGC (e[5mC]*eG*e[5mC]*e[5mC]*eA*dG*d[5mC]*dT*dG*dT*dA*dG*d[5mC]*dT*d[5mC]*eT*eG*eG*eG*e[5mC]; antisense) [ISIS 145667]	54%	49%
CTGCGCCAGCTGTAGCTCTG (e[5mC]*eT*eG*e[5mC]*eG*d[5mC]*d[5mC]*dA*dG*d[5mC]*dT*dG*dT*dA*dG*e[5mC]*eT*e[5mC]*eT*eG; antisense) [ISIS 145668]	47%	39%
GCCCACCAAGTGCCAAACTG (eG*e[5mC]*e[5mC]*e[5mC]*eA*d[5mC]*d[5mC]*dA*dA*dG*dT*dG*d[5mC]*d[5mC]*dA*eA*eA*e[5mC]*eT*eG; antisense) [ISIS 145662]	52%	19%
GGAGACAACCACACACAGTG (eG*eG*eA*eG*eA*d[5mC]*dA*dA*d[5mC]*d[5mC]*dA*d[5mC]*dA*d[5mC]*dA*e[5mC]*eA*eG*eT*eG; antisense) [ISIS 145671]	39%	25%
GGATAAGGAAGAACTGGCCC (eG*eG*eA*eT*eA*dA*dG*dG*dA*dA*dG*dA*dA*d[5mC]*dT*eG*eG*e[5mC]*e[5mC]*e[5mC]; antisense) [ISIS 145686]	32%	26%
GGCATGACAAAGGAGAAGGT (eG*eG*e[5mC]*eA*eT*dG*dA*d[5mC]*dA*dA*dA*dG*dG*dA*dG*eA*eA*eG*eG*eT; antisense) [ISIS 145657]	43%	45%
GGTTCATTGTGGATGAGCAG (eG*eG*eT*eT*e[5mC]*dA*dT*dT*dG*dT*dG*dG*dA*dT*dG*eA*eG*e[5mC]*eA*eG; antisense) [ISIS 145673]	47%	4%
TCTCCTCCTTCAAGGAGCCC (eT*e[5mC]*eT*e[5mC]*e[5mC]*dT*d[5mC]*d[5mC]*dT*dT*d[5mC]*dA*dA*dG*dG*eA*eG*e[5mC]*e[5mC]*e[5mC]; antisense) [ISIS 359526]	54%	–
TCTCCTGGATAAGGAAGAAC (eT*e[5mC]*eT*e[5mC]*e[5mC]*dT*dG*dG*dA*dT*dA*dA*dG*dG*dA*eA*eG*eA*eA*e[5mC]; antisense) [ISIS 359529]	15%	–
TGGGCTGCCATGGTAGAAAA (eT*eG*eG*eG*e[5mC]*dT*dG*d[5mC]*d[5mC]*dA*dT*dG*dG*dT*dA*eG*eA*eA*eA*eA; antisense) [ISIS 145652]	50%	36%
TGTAGTGCTTGGCAATGGTG (eT*eG*eT*eA*eG*dT*dG*d[5mC]*dT*dT*dG*dG*d[5mC]*dA*dA*eT*eG*eG*eT*eG; antisense) [ISIS 359544]	7%	–
TTACCCGGAAGAGGTACATG (eT*eT*eA*e[5mC]*e[5mC]*d[5mC]*dG*dG*dA*dA*dG*dA*dG*dG*dT*eA*e[5mC]*eA*eT*eG; antisense) [ISIS 359531]	62%	–
TTCAGCCACCCAGAAGGCTG (eT*eT*e[5mC]*eA*eG*d[5mC]*d[5mC]*dA*d[5mC]*d[5mC]*d[5mC]*dA*dG*dA*dA*eG*eG*e[5mC]*eT*eG; antisense) [ISIS 359546]	39%	–
TTGGCAATGGTGCTGAAGGG (eT*eT*eG*eG*e[5mC]*dA*dA*dT*dG*dG*dT*dG*d[5mC]*dT*dG*eA*eA*eG*eG*eG; antisense) [ISIS 145700]	24%	1%

— US8258114B2, “Modulation of glucose-6-phosphatase translocase expression” (Isis Pharmaceuticals, Inc., priority 2004, dated 2012)
